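Method: 48-hour compound exposure of cells in 96-well plates, five concentrations, linear interpolation of endpoints. TGI marks complete inhibition of growth.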
What was measured:
Test in all cases: DTP human tumour cell line panel, 48 h
NCI/ADR-RES ovarian = system: NCI/ADR-RES ovarian
SR leukemia = system: SR leukemia
DU-145 prostate = system: DU-145 prostate
OVCAR-4 ovarian = system: OVCAR-4 ovarian
HS 578T breast = system: HS 578T breast
RPMI-8226 leukemia = system: RPMI-8226 leukemia
HCT-15 colon = system: HCT-15 colon
TK-10 renal = system: TK-10 renal
BT-549 breast = system: BT-549 breast
SNB-19 CNS = system: SNB-19 CNS
SK-MEL-28 melanoma = system: SK-MEL-28 melanoma
MDA-MB-231 breast = system: MDA-MB-231 breast
HCC-2998 colon = system: HCC-2998 colon
EKVX NSCLC = system: EKVX NSCLC
HT29 colon = system: HT29 colon
M14 melanoma = system: M14 melanoma
OVCAR-5 ovarian = system: OVCAR-5 ovarian
SF-295 CNS = system: SF-295 CNS
SN12C renal = system: SN12C renal
MDA-N = system: MDA-N

| SMILES | TGI (NCI/ADR-RES ovarian) [µM] | TGI (SR leukemia) [µM] | TGI (DU-145 prostate) [µM] | TGI (OVCAR-4 ovarian) [µM] | TGI (HS 578T breast) [µM] | TGI (RPMI-8226 leukemia) [µM] | TGI (HCT-15 colon) [µM] | TGI (TK-10 renal) [µM] | TGI (BT-549 breast) [µM] | TGI (SNB-19 CNS) [µM] | TGI (SK-MEL-28 melanoma) [µM] | TGI (MDA-MB-231 breast) [µM] | TGI (HCC-2998 colon) [µM] | TGI (EKVX NSCLC) [µM] | TGI (HT29 colon) [µM] | TGI (M14 melanoma) [µM] | TGI (OVCAR-5 ovarian) [µM] | TGI (SF-295 CNS) [µM] | TGI (SN12C renal) [µM] | TGI (MDA-N) [µM] |
| --- | --- | --- | --- | --- | --- | --- | --- | --- | --- | --- | --- | --- | --- | --- | --- | --- | --- | --- | --- | --- |
| CCOC(=O)C(SCCO)C(C(=O)OCC)n1cnc2c(N)ncnc21 (stereo not given) | 56.7 | 14.5 | > 100 | > 48.3 | 59.2 | 23.5 | 22.5 | 28.3 | 30.8 | > 69.1 | 34.3 | 32.7 | 30.4 | 38.1 | 25.4 | 9.83 | 18.6 | > 100 | 25.6 | 44.1 |
| O=c1[nH]c(C23CC4CC(CC(C4)C2)C3)cc2c1c(=O)oc1ccccc12 | 18.9 | 9.31 | 22 | 14 | > 20.3 | 15.1 | 81.3 | 12.2 | 38.2 | 17.7 | 20.6 | 10.8 | 19.6 | 3.99 | 15.7 | 39.6 | 22.8 | 12.9 | 38.5 | > 59.3 |
| Cc1cc(C)nc(NS(=O)(=O)c2ccc(Nc3c4ccccc4nc4c(C(=O)NNCCO)cccc34)cc2)n1 | > 100 | > 100 | > 100 | > 100 | > 100 | > 100 | > 100 | > 100 | > 100 | > 100 | > 100 | > 100 | > 100 | > 100 | > 100 | > 100 | > 100 | > 100 | > 100 | > 100 |
| CC1(C)CN=C(c2ccc3c(c2)Cc2cc(C4=NCC(C)(C)N4)ccc2-3)N1 | > 100 | > 100 | > 100 | > 100 | > 100 | 65.8 | > 100 | > 100 | > 100 | > 100 | > 100 | > 100 | 74.1 | > 100 | > 100 | > 100 | > 100 | > 100 | > 100 | > 100 |

— PubChem BioAssay (NCI)
